“And” between values parts separate entries of the source, which are not always exact repeats. Identical values can stand only once. Like-named read-outs stand apart in the source and are kept apart here.
Assays:
porcine liver samples = settings: for Tissue destruction, visual observation: injected alone into porcine liver
liver parenchyma = tested on: liver parenchyma; design: species or system porcine; settings: for Final thermocouple pH after five minutes: after NaOH pre-injection
[1] = 100 microliters alone, 0:00 min
[2] = 100 microliters alone, 0:15 min
[3] = 100 microliters alone, 0:30 min
[4] = 100 microliters alone, 1:00 min
[5] = 100 microliters alone, 1:15 min

CC(=O)OC(C)=O [Acetic Anhydride] was tested, and the Recorded temperature changes (porcine liver samples) was 0.0-2.94 degrees C, the “Temperature change from baseline” value (porcine liver samples) was at least 1.0 degree C and the pH (porcine liver samples; [1]) was 6.33 and 7.52 and 7.1 and 6.14 and 6.23. The pH (porcine liver samples; [2]) was 5.2 and 3.75 and 3.34 and 5.7 and 6.03, the pH (porcine liver samples; [3]) was 5.06 and 3.54 and 3.2 and 5.63 and 6.01 and the pH (porcine liver samples; 100 microliters alone, 0:45 min) was 4.9 and 3.43 and 3.11 and 5.54 and 5.92. For the same compound, the pH (porcine liver samples; [4]) was 4.81 and 3.36 and 3.05 and 5.42 and 5.91, the pH (porcine liver samples; [5]) was 4.75 and 3.27 and 2.98 and 5.25 and 5.87 and the pH (porcine liver samples; 100 microliters alone, 2:00 min) was 4.47 and 3.09 and 2.77 and 4.3 and 5.5. The pH (porcine liver samples; 100 microliters alone, 2:15 min) was 4.4 and 3.03 and 2.75 and 4.23 and 5.3, the pH (porcine liver samples; 100 microliters alone, 2:30 min) was 4.35 and 2.96 and 2.71 and 4.21 and 4.79 and the pH (porcine liver samples; 100 microliters alone, 2:45 min) was 4.3 and 2.92 and 2.68 and 4.16 and 4.65. For the same compound, the pH (porcine liver samples; 100 microliters alone, 3:00 min) was 4.25 and 2.9 and 2.65 and 4.12 and 4.57, the pH (porcine liver samples; 100 microliters alone, 3:15 min) was 4.22 and 2.88 and 2.61 and 4.01 and 4.48 and the pH (porcine liver samples; 100 microliters alone, 3:30 min) was 4.2 and 2.84 and 2.57 and 4.01 and 4.46. For the same compound, the pH (porcine liver samples; 100 microliters alone, 3:45 min) was 4.16 and 2.81 and 2.54 and 3.97 and 4.4, the pH (porcine liver samples; 100 microliters alone, 4:00 min) was 4.14 and 2.78 and 2.5 and 3.93 and 4.38 and the pH (porcine liver samples; 100 microliters alone, 4:15 min) was 4.1 and 2.75 and 2.49 and 3.86 and 4.35. For the same compound, the pH (porcine liver samples; 100 microliters alone, 4:30 min) was 4.09 and 2.74 and 2.46 and 3.84 and 4.32, the pH (porcine liver samples; 100 microliters alone, 4:45 min) was 4.06 and 2.72 and 2.42 and 3.8 and 4.3 and the pH (porcine liver samples; 100 microliters alone, 5:00 min) was 4.05 and 2.7 and 2.41 and 3.74 and 4.29. For the same compound, the pH (porcine liver samples; 200 microliters alone, 1:00 min) was 4.91 and 3.36 and 3.21 and 5.41 and 4.80, the “Changes, pH (lower line)” value (porcine liver samples; 200 microliters alone, lower line of Changes (fits 0:00 vs 5:00)) was 1.85 and 2.70 and 3.42 and 2.10 and 2.42 and the “Injections producing greater than one degree Celsius temperature change” value (porcine liver samples; 300 microliters alone) was “three out of five injections”. The “Tissue destruction, visual observation” value (porcine liver samples) was “larger volumes of Acetic Anhydride correlated with greater areas of tissue destruction”, the Recorded temperature change (liver parenchyma) was 1.4-9.4 degrees C and the “Final thermocouple pH after five minutes” value (liver parenchyma) was “overwhelmingly basic”.

With CC(=O)Cl [Acetyl Chloride] the Temp (porcine liver samples; 100 microliters alone, different temp probe, 0:00 min) was 16.4 C. and 17.1 C. and 17.4 C. and 16.6 C. and 17 C, the Temp (porcine liver samples; 100 microliters alone, different temp probe, 0:30 min) was 22.5 C. and 32 C. and 39 C. and 42.2 C. and 32.3 C and the Temp (porcine liver samples; 100 microliters alone, different temp probe, 0:45 min) was 21.5 C. and 27.5 C. and 33.5 C. and 33.9 C. and 27.3 C. For the same compound, the Temp (porcine liver samples; 100 microliters alone, different temp probe, 1:00 min) was 21 C. and 25 C. and 30.6 C. and 30.7 C. and 25.7 C, the Temp (porcine liver samples; 100 microliters alone, different temp probe, 1:15 min) was 20.2 C. and 24 C. and 28.4 C. and 27.8 C. and 23.9 C and the Temp (porcine liver samples; 100 microliters alone, different temp probe, 1:30 min) was 19.6 C. and 23.5 C. and 27 C. and 26.2 C. and 23.1 C. For the same compound, the Temp (porcine liver samples; 100 microliters alone, different temp probe, 1:45 min) was 19 C. and 22.7 C. and 25.6 C. and 25 C. and 22.3 C, the Temp (porcine liver samples; 100 microliters alone, different temp probe, 2:00 min) was 18.4 C. and 22.1 C. and 24.7 C. and 24.2 C. and 21.6 C and the Temp (porcine liver samples; 100 microliters alone, different temp probe, 2:15 min) was 18.3 C. and 21.4 C. and 23.9 C. and 23.2 C. and 21.1 C. The Temp (porcine liver samples; 100 microliters alone, different temp probe, 2:30 min) was 18.1 C. and 21.1 C. and 23.3 C. and 22.6 C. and 20.6 C, the Temp (porcine liver samples; 100 microliters alone, different temp probe, 2:45 min) was 18 C. and 20.6 C. and 22.6 C. and 22 C. and 20.2 C and the Temp (porcine liver samples; 100 microliters alone, different temp probe, 3:00 min) was 17.9 C. and 20.3 C. and 22.1 C. and 21.5 C. and 19.9 C. The Temp (porcine liver samples; 100 microliters alone, different temp probe, 3:15 min) was 17.8 C. and 20.1 C. and 21.7 C. and 21.1 C. and 19.6 C, the Temp (porcine liver samples; 100 microliters alone, different temp probe, 3:45 min) was 17.6 C. and 19.5 C. and 21 C. and 20.4 C. and 19.1 C and the Temp (porcine liver samples; 100 microliters alone, different temp probe, 4:00 min) was 17.5 C. and 19.4 C. and 20.7 C. and 20.1 C. and 18.9 C. For the same compound, the Temp (porcine liver samples; 100 microliters alone, different temp probe, 4:15 min) was 17.5 C. and 19.2 C. and 20.4 C. and 19.9 C. and 18.9 C, the Temp (porcine liver samples; 100 microliters alone, different temp probe, 4:30 min) was 17.4 C. and 19 C. and 20.2 C. and 19.6 C. and 18.6 C and the Temp (porcine liver samples; 100 microliters alone, different temp probe, 4:45 min) was 17.3 C. and 18.8 C. and 20 C. and 19.4 C. and 18.4 C. For the same compound, the Temp (porcine liver samples; 100 microliters alone, different temp probe, 5:00 min) was 17.3 C. and 18.6 C. and 19.8 C. and 19.2 C. and 18.3 C, the pH (porcine liver samples; [1]) was 6.14 and 6.55 and 6.5 and 5.7 and the pH (porcine liver samples; [2]) was 3.1 and 4.67 and 4.62 and 4.82. For the same compound, the pH (porcine liver samples; [3]) was 2.5 and 3.59 and 3.32 and 4.57, the Temp (porcine liver samples; [4]) was 27.4 C. and 24.5 C. and 23.4 C. and 22.8 C and the Temp (porcine liver samples; [5]) was 26.2 C. For the same compound, the “Tissue destruction, visual observation” value (porcine liver samples) was “more violent and rapid tissue destruction than Acetic Anhydride”, the Temperature changes (liver parenchyma; 100, 200, 300 microliters after 100 or 200 microliters of 1M-15M NaOH, 21 injections) was 7.9-32 degrees Celsius and the “Final thermocouple pH after five minutes” value (liver parenchyma) was “more acidic pH”. For the same compound, the “Temperature changes in the first thirty seconds after injection” value (liver parenchyma; eleven of the twenty-one runs, with NaOH) was 20-30 degrees Celsius.

— patent publication US8979831B2 (priority 2008, dated 2015)
